Source: publication PMC10253817, “Design, Pharmacological Characterization, and Molecular Docking of Minimalist Peptidomimetic Antagonists of α4β1 Integrin” (International Journal of Molecular Sciences, 2023)

How the values were obtained:
JNK = assay: Western blot, FN-induced JNK phosphorylation in Jurkat E6.1 cells; assay type: cell-based; conditions: Jurkat E6.1 cells pre-treated with 10^−7, 10^−8, 10^−9 M, then FN (10 µg/mL) 30 min
Experimental: (§1) To this purpose, Jurkat E6.1 cells were pre-treated with different concentrations (10^−7, 10^−8, 10^−9 M) of the compounds and then exposed to FN (10 µg/mL) for 30 min. […] In addition, the effects observed on intracellular signaling were concentration-dependent, except for compound 13 on AKT activation.
(§2) Western blot analysis was performed as previously described, with the following modifications. […] For integrin antagonists, JurkatE6.1 cells were subsequently incubated with FN (10 μg/mL) at 37 °C for 30 min. At the end of the incubation period, Jurkat E6.1 cells were lysed on ice using T-PER® (Tissue Protein Extraction Reagent, Life Technologies Italia, Milan, Italy), supplemented with a phosphatase inhibitor cocktail. Protein extracts were quantified using a BCA Protein Assay (Pierce, Rockford, IL, USA). The proteins from the cytoplasmatic extract were denatured at 95 °C for 3 min, then equal amounts of protein samples (30–50 μg) were loaded and separated via 12% SDS-PAGE. Proteins were transferred onto a nitrocellulose membrane (Biorad, Hercules, CA, USA), which was blocked with 5% nonfat milk in a Tris-buffered saline (10 mM Tris-HCl, pH 8, containing 150 mM NaCl) containing 0.1% Tween 20 for 1 h at room temperature. Membranes were stained overnight at 4 °C with anti-actin antibody (1:5000, Merck Life Science, Milan, Italy) or with anti-phospho-ERK1/2, anti-total ERK1/2, anti-phospho-AKT, anti-total-AKT, or anti-phospho-JNK antibodies (1:1000; Cell Signaling Technology, Danvers, MA, USA). The membranes were incubated with anti-rabbit peroxidase-conjugated secondary antibodies at a dilution of 1:8000. Blots were developed with a SuperSignal West Pico chemiluminescent substrate. Protocols for digital image acquisition and analysis have previously been described.

α4β1 integrin = molecular target: T1, α4β1 integrin (Homo sapiens, UniProt P05556+P13612); assay: LDV-FITC competitive binding on intact Jurkat E6.1 cells; conditions: intact Jurkat E6.1 cells vs. LDV-FITC; mean ± SD
T1 construct: Jurkat E6.1 cell line, which endogenously expresses α4β1 integrin; host or cells: Jurkat E6.1
T1 sequence (P13612 34-1032): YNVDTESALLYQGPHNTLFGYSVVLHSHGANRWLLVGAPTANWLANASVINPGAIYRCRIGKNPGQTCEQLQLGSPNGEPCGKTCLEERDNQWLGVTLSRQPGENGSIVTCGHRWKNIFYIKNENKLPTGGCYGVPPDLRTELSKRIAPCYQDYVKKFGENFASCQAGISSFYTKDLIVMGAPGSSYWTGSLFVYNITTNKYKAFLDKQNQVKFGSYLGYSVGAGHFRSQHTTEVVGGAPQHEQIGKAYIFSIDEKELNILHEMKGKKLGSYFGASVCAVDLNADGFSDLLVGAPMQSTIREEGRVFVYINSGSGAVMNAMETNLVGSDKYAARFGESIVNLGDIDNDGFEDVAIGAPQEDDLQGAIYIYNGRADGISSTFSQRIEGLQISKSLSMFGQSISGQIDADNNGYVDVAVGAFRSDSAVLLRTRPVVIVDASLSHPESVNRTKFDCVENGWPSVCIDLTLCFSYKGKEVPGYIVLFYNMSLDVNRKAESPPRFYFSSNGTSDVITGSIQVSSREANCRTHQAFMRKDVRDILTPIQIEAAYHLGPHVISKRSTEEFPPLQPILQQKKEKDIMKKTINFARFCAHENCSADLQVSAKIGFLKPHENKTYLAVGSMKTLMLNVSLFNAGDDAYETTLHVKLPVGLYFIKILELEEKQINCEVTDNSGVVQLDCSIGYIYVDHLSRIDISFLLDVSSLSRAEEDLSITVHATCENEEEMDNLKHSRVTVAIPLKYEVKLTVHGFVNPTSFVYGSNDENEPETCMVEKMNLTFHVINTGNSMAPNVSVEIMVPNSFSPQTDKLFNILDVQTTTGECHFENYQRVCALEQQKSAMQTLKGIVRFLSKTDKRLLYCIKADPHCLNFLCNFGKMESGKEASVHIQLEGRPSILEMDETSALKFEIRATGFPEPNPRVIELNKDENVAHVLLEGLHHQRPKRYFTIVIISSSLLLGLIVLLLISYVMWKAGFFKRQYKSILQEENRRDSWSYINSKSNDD
T1 sequence (P05556 21-798): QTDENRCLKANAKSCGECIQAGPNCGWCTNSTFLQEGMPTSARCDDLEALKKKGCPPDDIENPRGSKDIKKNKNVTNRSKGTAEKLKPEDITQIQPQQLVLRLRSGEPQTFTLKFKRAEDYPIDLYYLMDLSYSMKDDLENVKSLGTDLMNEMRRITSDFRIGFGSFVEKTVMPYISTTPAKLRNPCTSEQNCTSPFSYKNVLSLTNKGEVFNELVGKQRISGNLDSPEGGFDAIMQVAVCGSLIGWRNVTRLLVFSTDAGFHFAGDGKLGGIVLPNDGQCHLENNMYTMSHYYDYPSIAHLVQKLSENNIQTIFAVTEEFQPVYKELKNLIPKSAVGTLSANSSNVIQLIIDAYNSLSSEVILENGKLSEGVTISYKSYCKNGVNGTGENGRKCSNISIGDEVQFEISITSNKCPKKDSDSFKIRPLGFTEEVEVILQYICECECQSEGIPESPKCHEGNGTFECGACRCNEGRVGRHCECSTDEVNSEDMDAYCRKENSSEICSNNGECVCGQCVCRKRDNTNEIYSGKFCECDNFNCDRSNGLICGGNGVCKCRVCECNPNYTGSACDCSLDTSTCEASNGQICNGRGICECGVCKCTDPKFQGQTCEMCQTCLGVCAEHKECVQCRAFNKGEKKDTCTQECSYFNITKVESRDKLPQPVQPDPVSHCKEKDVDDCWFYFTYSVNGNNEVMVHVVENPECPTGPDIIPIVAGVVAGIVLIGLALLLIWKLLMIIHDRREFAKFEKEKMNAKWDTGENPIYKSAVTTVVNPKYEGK
Experimental: The assays were performed as previously described with the following modifications. Jurkat E6.1 cells were resuspended (50,000 cells/sample) in 0.1% BSA in a HEPES buffer (NaCl 110 mM; KCl 10 mM; Glucose 10 mM; MgCl2 1 mM; CaCl2 1.5 mM; HEPES 30 mM; pH 7.4) and pre-incubated with different concentrations (10^−11–10^−5 M) of compounds for 20–30 min at RT. Then, LDV-FITC (5 µM) was added to the cells, and they were incubated in the dark for an additional 30 min at RT. At the end of the incubation with LDV-FITC, cells were washed with 0.1% BSA in a HEPES buffer. The FITC fluorescence intensity was measured using an EnSpire Multimode Plate Reader (PerkinElmer, Waltham, MA, USA). The data were plotted as LDV-FITC specific bindings versus the concentration of the competitor, and the data were fitted to a one-site competition equation; the equilibrium dissociation constant Ki was calculated from the IC50 using the Cheng–Prusoff equation.

α5β1 integrin = molecular target: T2, α5β1 integrin (Homo sapiens, UniProt P05556+P08648); assay: α5β1 integrin-mediated K562 cell adhesion to FN; assay type: cell-based; conditions: K562 cell adhesion to FN (10 μg/mL)
T2 construct: K562 cells, mainly expressing α5β1, which shares a β1 subunit with the heterodimer α4β1; host or cells: K562 (PMA-treated)
T2 sequence (P08648 42-894 limits assumed): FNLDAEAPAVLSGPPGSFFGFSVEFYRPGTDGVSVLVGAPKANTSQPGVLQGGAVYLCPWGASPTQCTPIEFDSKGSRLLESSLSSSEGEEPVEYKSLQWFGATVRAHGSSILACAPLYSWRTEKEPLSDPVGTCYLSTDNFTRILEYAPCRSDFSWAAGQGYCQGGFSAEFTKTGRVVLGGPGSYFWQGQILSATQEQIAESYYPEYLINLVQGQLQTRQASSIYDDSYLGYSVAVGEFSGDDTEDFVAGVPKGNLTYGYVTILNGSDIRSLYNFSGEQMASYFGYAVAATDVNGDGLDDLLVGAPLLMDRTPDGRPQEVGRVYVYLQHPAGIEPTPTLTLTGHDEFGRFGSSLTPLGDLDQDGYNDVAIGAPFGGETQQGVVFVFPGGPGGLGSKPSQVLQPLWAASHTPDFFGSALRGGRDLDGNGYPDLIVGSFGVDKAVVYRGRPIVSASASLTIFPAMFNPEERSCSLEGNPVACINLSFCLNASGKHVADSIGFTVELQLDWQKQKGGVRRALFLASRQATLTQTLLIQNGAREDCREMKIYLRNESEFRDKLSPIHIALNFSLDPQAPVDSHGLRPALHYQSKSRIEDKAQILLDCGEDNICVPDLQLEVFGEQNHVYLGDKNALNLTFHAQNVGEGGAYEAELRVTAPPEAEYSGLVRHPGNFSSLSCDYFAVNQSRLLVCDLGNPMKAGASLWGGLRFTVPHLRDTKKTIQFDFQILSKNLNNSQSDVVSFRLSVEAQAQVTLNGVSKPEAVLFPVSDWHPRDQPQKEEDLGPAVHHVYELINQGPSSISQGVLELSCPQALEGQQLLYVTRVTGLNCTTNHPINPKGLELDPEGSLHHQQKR
T2 sequence (P08648 895-1049 partner limits assumed): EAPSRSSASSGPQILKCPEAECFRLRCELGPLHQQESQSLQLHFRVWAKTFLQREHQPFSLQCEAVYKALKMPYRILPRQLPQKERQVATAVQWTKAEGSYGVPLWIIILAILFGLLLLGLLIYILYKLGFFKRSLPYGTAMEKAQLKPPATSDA
T2 sequence (P05556 21-798): as the sequence (P05556 21-798) above
Experimental: To this purpose, the ability of the best peptidomimetics to modulate cell adhesion mediated by integrins other than α4β1 was evaluated in HL60 cells, mainly expressing the leukocyte integrin αMβ2, and on K562 cells, mainly expressing α5β1, which shares a β1 subunit with the heterodimer α4β1. […] In contrast, 13 was a moderate promoter of cell adhesion mediated by αMβ2 integrin, behaving as an agonist. Regarding α5β1 integrin, none of the peptidomimetics employed were able to modulate K562 cell adhesion, thus being shown to be completely ineffective toward α5β1 integrin. The reference compound DS-70 was ineffective toward both αMβ2 and α5β1 integrins under the same experimental conditions (Table 3).
For adhesion assays mediated by α5β1 integrin, K562 cells were pre-treated with PMA (64.85 nM, Merck Life Science, Milan, Italy) for 48 h to enhance α5β1 integrin expression. 96-well plates were coated via passive adsorption with FN (10 μg/mL) overnight at 4 °C; then, the following day, plates were blocked by adding 100 μL/well of a blocking solution (1% BSA in PBS) and incubated for 1 h at 37 °C. K562 cells were counted and preincubated with various concentrations (10^−10–10^−4 M) of the peptides or with the vehicle for 30 min at RT. Then, K562 cells were plated (50,000 cells/well) and incubated at RT for 1 h. The wells were then washed three times with 1% BSA in PBS, and 50 μL of hexosaminidase substrate was added and incubated at RT for 1 h. After the addition of 100 μL of stopping solution (50 mM glycine and 5 mM EDTA, pH 10.4), plates were read at 405 nm in an EnSpire Multimode Plate Reader.
In both types of adhesion assay, the number of adherent cells was determined via comparison with a standard curve made in the same plate. Experiments were carried out in quadruplicate and repeated at least three times. Data analysis and EC50 or IC50 values were calculated using GraphPad Prism 9.5.1 (GraphPad Software, San Diego, CA, USA).
Cell culture. Jurkat E6.1 (expressing both α4β1 and αLβ2 integrin), K562 (expressing α5β1 integrin) and HL60 (expressing α Mβ2 integrin) cell lines were purchased from ATCC (Rockville, MD, USA); these cells were routinely cultured in RPMI-1640 (Life Technologies) supplemented with 1% glutamine and 10% fetal bovine serum (FBS). Cells were grown at 37 °C under 5% CO 2 humidified atmosphere. 40 h before the adhesion assays, K562 and HL60 cells were treated with 25 nM or 40 nM phorbol 12 -myristate 13-acetate (PMA; Sigma-Aldrich), respectively, to induced cell differentiation and to increased α5β1 or αMβ2 integrin expression on cell surface (Baiula et al., 2016).
Cell adhesion assays . Concentration-response curves, obtained from cell adhesion assays performed in […]
Figure S1. […]

AKT = assay: Western blot, FN-induced AKT phosphorylation in Jurkat E6.1 cells; assay type: cell-based; conditions: Jurkat E6.1 cells pre-treated with 10^−7, 10^−8, 10^−9 M, then FN (10 µg/mL) 30 min
Experimental: as §1, §2

Ki (α4β1 integrin) [nM]	IC50 (α5β1 integrin) [nM]	Compound	FN-induced JNK phosphorylation (JNK)	FN-induced AKT phosphorylation (AKT)
1.3 ± 0.7	> 5000	CC(=O)N[C@@H](CNC(=O)Cc1ccc(NC(=O)Nc2ccccc2C)cc1)C(=O)NCC(=O)O [compound 3]	did not counteract	significantly prevented
1.9 ± 0.8	> 5000	CCCNC(=O)[C@@H](CC(=O)NCC(=O)O)NC(=O)Cc1ccc(NC(=O)Nc2ccccc2C)cc1 [compound 8]	able to significantly prevent	significantly prevented
16.7 ± 5.2	> 5000	Cc1ccccc1NC(=O)Nc1ccc(CNC(=O)C[C@@H](C)NC(=O)CC(=O)O)cc1 [compound 13]	did not counteract	significantly prevented
